Measurements: patent publication US20230203081A1, “LINCOSAMIDE ANTIBIOTICS AND USES THEREOF” (President and Fellows of Harvard College, priority 2020, published 2023)
≈ marks a conversion by molar mass, not a printed value. Read-outs that look alike come from different tables or passages of the source.

Columns and labels:
Assay type in all cases: cell-based
E. coli armA = assay: microbe, parasite or virus in culture
Outline: (§1)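 Isolates other than streptococci and anaerobes, which had their own procedures, were grown overnight at 35° C on tryptic soy agar with 5% sheep blood. Suspensions were then diluted to a final inoculum of 5×10^5 CFU/mL in broth microdilution wells.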

E. coli ΔTolC = assay: microbe, parasite or virus in culture
Outline: as §1

S. aureus MP-549 msrA = assay: microbe, parasite or virus in culture
Outline: as §1

S. aureus BAA 977 iErmA = assay: microbe, parasite or virus in culture
Outline: as §1

S. aureus ATCC 700699 = assay: MIC (broth microdilution or agar dilution, CLSI)
Outline: as §1

S. pneumoniae ATCC 6303 = assay: MIC (broth microdilution or agar dilution, CLSI)
Outline: as §1

S. aureus hVISA = assay: MIC (broth microdilution or agar dilution, CLSI)
Outline: as §1

[1] = test system: S. aureus ATCC BAA-1707 (MRSA); assay: MIC (broth microdilution or agar dilution, CLSI)
Outline: as §1

S. aureus MMX 3035 cErmA = assay: MIC (broth microdilution or agar dilution, CLSI)
Outline: as §1

[2] = test system: S. pneumoniae MMX 3031 cMefA; assay: MIC (broth microdilution or agar dilution, CLSI)
Outline: as §1

[3] = test system: S. pneumoniae MMX 3028 cErmB; assay: MIC (broth microdilution or agar dilution, CLSI)
Outline: as §1

S. pneumoniae ATCC 49619 = assay: MIC (broth microdilution or agar dilution, CLSI)
Outline: as §1

K. pneumoniae ATCC 10031 = assay: MIC (broth microdilution or agar dilution, CLSI)
Outline: as §1

S. aureus ATCC 29213 = assay: MIC (broth microdilution or agar dilution, CLSI)
Outline: as §1

[4] = test system: E. faecalis MMX 847; cErmB; assay: MIC (broth microdilution or agar dilution, CLSI); settings: cErmB
Outline: as §1

S. pyogenes ATCC 19615 = assay: MIC (broth microdilution or agar dilution, CLSI)
Outline: as §1

E. coli ATCC 25922 = assay: MIC (broth microdilution or agar dilution, CLSI)
Outline: as §1

E. faecalis ATCC 29212 = assay: MIC (broth microdilution or agar dilution, CLSI)
Outline: as §1

[5] = test system: S. pyogenes MMX 946; cErmB; assay: MIC (broth microdilution or agar dilution, CLSI); settings: for MIC: cErmB
Outline: as §1

E. coli LptD = assay: MIC (broth microdilution or agar dilution, CLSI)
Outline: as §1

K. oxytoca Clinical = assay: MIC (broth microdilution or agar dilution, CLSI)
Outline: as §1

[6] = Escherichia coli, E. coli HAV#056, Clinical, armA
[7] = Escherichia coli, E. coli HAV#038, ΔTolC
[8] = Staphylococcus aureus, BAA-977 / MRSA
[9] = Staphylococcus aureus, S. aureus HAV#202, ATCC 700699 (VISA), read-out: MIC
[10] = S. pneumoniae HAV#351, ATCC 6303
[11] = S. aureus HAV#016, ATCC BAA-1707, MRSA
[12] = S. aureus HAV#031, MMX 3035, cErmA
[13] = Streptococcus pneumoniae, MMX3031CMEFA, S. pneumoniae HAV#034, MMX 3031, cMefA, read-out: MIC
[14] = S. pneumoniae HAV#033, MMX 3028, cErmB
[15] = Streptococcus pneumoniae, ATCC49619, S. pneumoniae HAV#003, ATCC 49619, read-out: MIC
[16] = Staphylococcus aureus, ATCC29213, S. aureus HAV#001, ATCC 29213, MP-549, read-out: MIC
[17] = E. faecalis HAV#036, MMX 847, mac-resistant
[18] = Streptococcus pyogenes, ATCC19615, S. pyogenes HAV#004, ATCC 19615, read-out: MIC
[19] = Enterococcus faecalis, ATCC29212, E. faecalis HAV#005, ATCC 29212, read-out: MIC
[20] = S. pyogenes HAV#035, MMX 946, mac-resistant
[21] = Escherichia coli, E. coli HAV#040, LptD, read-out: MIC

## CSC1O[C@H]([C@H](NC(=O)[C@H]2NC[C@@H]3C[C@H](CC(C)C)CCO[C@H]32)[C@H](C)Cl)C(O)[C@@H](O)[C@H]1O (stereo partly shown) [FSA-513018b]
E. coli armA; [6]
  MIC: 8 µg/mL (≈ 16.2 µM)
E. coli armA; Escherichia coli, E. coli armA
  MIC: 8 µg/mL (≈ 16.2 µM)
E. coli ΔTolC; [7]
  MIC: 0.5 µg/mL (≈ 1.01 µM)
E. coli ΔTolC; Escherichia coli, E. coli ΔTolC
  MIC: 0.5 µg/mL (≈ 1.01 µM)
S. aureus MP-549 msrA; Staphylococcus aureus, MP549MSRA, S. aureus MP-549 msrA
  MIC: ≤ 0.06 µg/mL
S. aureus MP-549 msrA; Staphylococcus aureus, MP549MSRA, S. aureus HAV#032, MP-549, MSR(A)
  MIC: 0.06 µg/mL (≈ 0.121 µM)
S. aureus BAA 977 iErmA; Staphylococcus aureus, BAA977
  MIC: ≤ 0.06 µg/mL
S. aureus BAA 977 iErmA; [8]
  MIC: 0.06 µg/mL (≈ 0.121 µM)
S. aureus BAA 977 iErmA; Staphylococcus aureus, BAA-977 / MRSA, 24 h
  MIC: 2 µg/mL (≈ 4.04 µM)
S. aureus ATCC 700699; Staphylococcus aureus, ATCC700699, S. aureus ATCC 700699, read-out: MIC
  MIC: 2 µg/mL (≈ 4.04 µM)
S. aureus ATCC 700699; [9]
  MIC: 2 µg/mL (≈ 4.04 µM)
S. pneumoniae ATCC 6303; [10]
  MIC: 0.03 µg/mL (≈ 0.0606 µM)
S. pneumoniae ATCC 6303; Streptococcus pneumoniae, ATCC6303, S. pneumoniae ATCC 6303, read-out: MIC
  MIC: 0.03 µg/mL (≈ 0.0606 µM)
S. aureus hVISA; S. aureus HAV#204, hVISA
  MIC: 1 µg/mL (≈ 2.02 µM)
S. aureus hVISA; Staphylococcus aureus, S. aureus hVISA, read-out: MIC
  MIC: 1 µg/mL (≈ 2.02 µM)
[1]; [11]
  MIC: 0.06 µg/mL (≈ 0.121 µM)
[1]; Staphylococcus aureus, S. aureus ATCC BAA-1707 (MRSA), read-out: MIC
  MIC: 0.06 µg/mL (≈ 0.121 µM)
S. aureus MMX 3035 cErmA; [12]
  MIC: 4 µg/mL (≈ 8.08 µM)
S. aureus MMX 3035 cErmA; Staphylococcus aureus, MMX3035CERMA, S. aureus MMX 3035 cErmA, read-out: MIC
  MIC: 4 µg/mL (≈ 8.08 µM)
[2]; [13]
  MIC: 0.03 µg/mL (≈ 0.0606 µM)
[2]; Streptococcus pneumoniae, MMX3031CMEFA, S. pneumoniae MMX 3031 cMefA, read-out: MIC
  MIC: ≤ 0.06 µg/mL
[3]; [14]
  MIC: 0.25 µg/mL (≈ 0.505 µM)
[3]; S. pneumoniae, c-ermB-mediated resistance
  MIC lower than that of clindamycin (fold): ≥ 1,000 ×
[3]; Streptococcus pneumoniae, MMX3028CERMB, S. pneumoniae MMX 3028 cErmB, read-out: MIC
  MIC: 0.25 µg/mL (≈ 0.505 µM)
S. pneumoniae ATCC 49619; [15]
  MIC: 0.015 µg/mL (≈ 0.0303 µM)
K. pneumoniae ATCC 10031; Klebsiella pneumoniae, ATCC10031, K. pneumoniae HAV#008, ATCC 10031, read-out: MIC
  MIC: 0.25 µg/mL (≈ 0.505 µM)
S. aureus ATCC 29213; Staphylococcus aureus, ATCC29213, S. aureus ATCC 29213, read-out: MIC
  MIC: ≤ 0.06 µg/mL
S. aureus ATCC 29213; [16]
  MIC: 0.06 µg/mL (≈ 0.121 µM)
[4]; [17]
  MIC: 1 µg/mL (≈ 2.02 µM)
[4]; Enterococcus faecalis, E. faecalis MMX 847, read-out: MIC
  MIC: 1 µg/mL (≈ 2.02 µM)
S. pyogenes ATCC 19615; Streptococcus pyogenes, ATCC19615, S. pyogenes ATCC 19615, read-out: MIC
  MIC: ≤ 0.06 µg/mL
S. pyogenes ATCC 19615; [18]
  MIC: 0.03 µg/mL (≈ 0.0606 µM)
E. coli ATCC 25922; E. coli HAV#006, ATCC 25922
  MIC: 8 µg/mL (≈ 16.2 µM)
E. coli ATCC 25922; Escherichia coli, ATCC25922, E. coli ATCC 25922, read-out: MIC
  MIC: 8 µg/mL (≈ 16.2 µM)
E. faecalis ATCC 29212; Enterococcus faecalis, ATCC29212, E. faecalis ATCC 29212, read-out: MIC
  MIC: ≤ 0.06 µg/mL
E. faecalis ATCC 29212; [19]
  MIC: 0.06 µg/mL (≈ 0.121 µM)
[5]; [20]
  MIC: 0.25 µg/mL (≈ 0.505 µM)
[5]; S. pyogenes, c-ermB-mediated resistance
  MIC lower than that of clindamycin (fold): ≥ 1,000 ×
[5]; Streptococcus pyogenes, S. pyogenes MMX 946, read-out: MIC
  MIC: 0.25 µg/mL (≈ 0.505 µM)
E. coli LptD; [21]
  MIC: 1 µg/mL (≈ 2.02 µM)
E. coli LptD; Escherichia coli, E. coli LptD, read-out: MIC
  MIC: 1 µg/mL (≈ 2.02 µM)
K. oxytoca Clinical; K. oxytoca HAV#450, Clinical
  MIC: 8 µg/mL (≈ 16.2 µM)
K. oxytoca Clinical; Klebsiella oxytoca, K. oxytoca Clinical, read-out: MIC
  MIC: 8 µg/mL (≈ 16.2 µM)

## C[C@H]1COc2c(N3CCN(C)CC3)c(F)cc3c(=O)c(C(=O)O)cn1c23 [Levofloxacin]
E. coli armA; [6]
  MIC: ≤ 0.06 µg/mL
E. coli ΔTolC; [7]
  MIC: ≤ 0.06 µg/mL
S. aureus MP-549 msrA; Staphylococcus aureus, MP549MSRA, S. aureus HAV#032, MP-549, MSR(A), read-out: MIC
  MIC: 1 µg/mL (≈ 2.77 µM)
S. aureus BAA 977 iErmA; [8]
  MIC: 0.5 µg/mL (≈ 1.38 µM)
S. aureus ATCC 700699; [9]
  MIC: 32 µg/mL (≈ 88.6 µM)
S. pneumoniae ATCC 6303; Streptococcus pneumoniae, ATCC6303, S. pneumoniae HAV#351, ATCC 6303, read-out: MIC
  MIC: 0.5 µg/mL (≈ 1.38 µM)
S. aureus hVISA; Staphylococcus aureus, S. aureus HAV#204, hVISA, read-out: MIC
  MIC: 8 µg/mL (≈ 22.1 µM)
[1]; Staphylococcus aureus
  MIC: > 128 µg/mL
S. aureus MMX 3035 cErmA; Staphylococcus aureus, MMX3035CERMA, S. aureus HAV#031, MMX 3035, cErmA, read-out: MIC
  MIC: 4 µg/mL (≈ 11.1 µM)
[2]; [13]
  MIC: 0.5 µg/mL (≈ 1.38 µM)
[3]; Streptococcus pneumoniae, MMX3028CERMB, S. pneumoniae HAV#033, MMX 3028, cErmB, read-out: MIC
  MIC: 0.5 µg/mL (≈ 1.38 µM)
S. pneumoniae ATCC 49619; [15]
  MIC: 1 µg/mL (≈ 2.77 µM)
K. pneumoniae ATCC 10031; Klebsiella pneumoniae, ATCC10031
  MIC: ≤ 0.03 µg/mL
S. aureus ATCC 29213; [16]
  MIC: 0.25 µg/mL (≈ 0.692 µM)
[4]; Enterococcus faecalis, E. faecalis HAV#036, MMX 847, mac-resistant, read-out: MIC
  MIC: > 64 µg/mL
S. pyogenes ATCC 19615; [18]
  MIC: 0.5 µg/mL (≈ 1.38 µM)
E. coli ATCC 25922; Escherichia coli, ATCC25922, E. coli HAV#006, ATCC 25922, read-out: MIC
  MIC: ≤ 0.06 µg/mL
E. faecalis ATCC 29212; [19]
  MIC: 2 µg/mL (≈ 5.53 µM)
[5]; Streptococcus pyogenes, S. pyogenes HAV#035, MMX 946, mac-resistant, read-out: MIC
  MIC: 0.5 µg/mL (≈ 1.38 µM)
E. coli LptD; [21]
  MIC: ≤ 0.06 µg/mL
K. oxytoca Clinical; Klebsiella oxytoca, K. oxytoca HAV#450, Clinical, read-out: MIC
  MIC: 0.5 µg/mL (≈ 1.38 µM)

## Gentamicin
E. coli armA; E. coli HAV#056, Clinical, armA
  MIC: >256 µg/mL
E. coli ΔTolC; E. coli HAV#038, ΔTolC
  MIC: 1 µg/mL
S. aureus MP-549 msrA; S. aureus HAV#032, MP-549, MSR(A)
  MIC: 1 µg/mL
S. aureus BAA 977 iErmA; S. aureus #HAV002, ATCC BAA 977, iErmA, MRSA
  MIC: 2 µg/mL
S. aureus ATCC 700699; S. aureus HAV#202, ATCC 700699 (VISA)
  MIC: >64 µg/mL
S. pneumoniae ATCC 6303; [10]
  MIC: 32 µg/mL
S. aureus hVISA; S. aureus HAV#204, hVISA
  MIC: >64 µg/mL
[1]; [11]
  MIC: 1 µg/mL
S. aureus MMX 3035 cErmA; [12]
  MIC: 1 µg/mL
[2]; S. pneumoniae HAV#034, MMX 3031, cMefA
  MIC: 8 µg/mL
[3]; [14]
  MIC: 4 µg/mL
S. pneumoniae ATCC 49619; S. pneumoniae HAV#003, ATCC 49619
  MIC: 16 µg/mL
K. pneumoniae ATCC 10031; K. pneumoniae HAV#008, ATCC 10031
  MIC: 0.25 µg/mL
S. aureus ATCC 29213; S. aureus HAV#001, ATCC 29213, MP-549
  MIC: 1 µg/mL
[4]; [17]
  MIC: >64 µg/mL
S. pyogenes ATCC 19615; S. pyogenes HAV#004, ATCC 19615
  MIC: 8 µg/mL
E. coli ATCC 25922; E. coli HAV#006, ATCC 25922
  MIC: 2 µg/mL
E. faecalis ATCC 29212; E. faecalis HAV#005, ATCC 29212
  MIC: 16 µg/mL
[5]; [20]
  MIC: 16 µg/mL
E. coli LptD; E. coli HAV#040, LptD
  MIC: 1 µg/mL
K. oxytoca Clinical; K. oxytoca HAV#450, Clinical
  MIC: 4 µg/mL
